Columns and labels:
[1] = biological target: T1, CCR2 (Homo sapiens, UniProt P41597); experiment: CCR2 receptor membrane binding assay (THP-1 membranes, 125I-MCP-1, SPA beads); settings: THP-1 cell membranes, 125I-MCP-1, 8 h; read-out: hKi [nM] (CCR2)
T1 construct: Membranes were prepared from THP-1 cells; endogenous in cells; host or cells: THP-1 (human acute monocytic leukaemia cells), membrane preparation
T1 sequence (P41597 1-360 isoform P41597-2): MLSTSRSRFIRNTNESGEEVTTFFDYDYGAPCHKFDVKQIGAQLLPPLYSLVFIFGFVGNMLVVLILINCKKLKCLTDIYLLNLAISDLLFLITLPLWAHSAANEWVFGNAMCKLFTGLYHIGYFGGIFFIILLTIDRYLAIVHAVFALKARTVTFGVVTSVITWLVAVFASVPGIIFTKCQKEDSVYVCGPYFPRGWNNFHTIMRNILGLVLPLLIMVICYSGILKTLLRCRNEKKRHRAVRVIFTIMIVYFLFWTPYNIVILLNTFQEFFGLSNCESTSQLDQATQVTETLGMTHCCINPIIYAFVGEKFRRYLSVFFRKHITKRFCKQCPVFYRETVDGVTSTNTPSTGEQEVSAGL
Procedure: The above exemplary substances have been tested for binding to CCR2 using a binding assay as outlined herein below:
THP-1 cells (human acute monocytic leukaemia cells) were cultured under standardized conditions at 37° C. and 5% CO2 in a humidified incubator. THP-1 cells were cultivated in RPMI 1640 medium (Gibco 21875) containing 1% MEM-NEAA (Gibso 11140) 2 mM L-glutamine, 1.5 g/L sodium bicarbonate, 4.5 g/L glucose, 10 mM HEPES and 1.0 mM sodium pyruvate, 90%; 10% fetal calf serum (FCS Gibco 10500-064).
Membranes were prepared from THP-1 cells. THP-1 cells were centrifuged at 300×g at 4° C. for 10 min. The cell pellet was resuspendet in Phosphate Buffer Saline (PBS, including 10 μM Pefabloc and a protease inhibitor mix ‘complete’, Boehringer Mannheim (1 tablet/50 ml)), to a concentration of […]. The membrane preparation was performed by disrupting the cells by nitrogen […] (at 50 bar, for 1 h) in a “Nitrogen Bombe” (Parr Instrument). Cell debris was removed by centrifugation (800×g at 4° C., 1 min). The supernatant was centrifuged at 80000×g, 4° C. for 30 min to sediment the cell membranes. Usually 50 mg of protein (Bradford assay) were yielded from 1×10E9 cells. The membranes were resuspendet in 25 mM HEPES, 25 mM MgCl2, 1 mM CaCl2, 10% Glycerine for storage in aliquots at −80° C. in 25 mM HEPES, 25 mM MgCl2, 1 mM CaCl2, 10% Glycerine and stored at −80° C.
Perkin Elmer NEX 332 Jod^125 MCP-1, Stock: 2200 Ci/mmol solved in 2000 μl assay buffer, stored at −20° C. THP-1 membrane were adjusted with 25 mM HEPES, pH 7.2; 5 mM MgCl2; 0.5 mM CaCl2; 0.2% BSA assay buffer to a concentration of 2.5 μg/15 μl. Amersham Biosciences PVT-WGA Beads (RPNQ0001) were adjusted with assay buffer to a concentration of 0.24 mg/30 μl. For preparation of the membrane-bead-suspension membranes and beads were incubated for 30 min at RT under rotation (60 rpm) with a ratio of 1:2. Test compounds dissolved in 100% DMSO to a concentration of 10 mM and are further diluted with 100% DMSO to 1 mM. All additional compound dilutions were obtained with assay buffer, final 1% DMSO. Compounds, membrane-bead-suspension and [^125]MCP-1 (ca. 25000 cpm/10 μl) were incubated. Bound radioactivity was determined by scintillation counter after 8 h. Determination of affinity of test compounds (dissociation constant hKi) is calculated by iterative fitting of experimental data using the “easy sys” program, which is based on law of mass action (Schittkowski K. (1994), Numerische Mathematik, Vol. 68, 129-142).

[2] = biological target: T2, human CCR5 (Homo sapiens, UniProt P51681); experiment: CCR5 receptor membrane binding assay (CHO (Gα16) human CCR5 membranes, [125I]RANTES, SPA beads); settings: 6 h, read-out: hKi [nM] (CCR5)
T2 construct: expressed in transfected cells; host or cells: CHO cells co-expressing Gα16, grown under puromycin and zeocin selection; membrane preparation
Procedure: The above exemplary substances have been tested for binding to CCR5 using a binding assay as outlined herein below:
CHO, (Gα16) human CCR5 cells were cultured under standardized conditions at 37° C. and 5% CO2 in a humidified incubator. CHO (Gα16) human CCR5 cells were cultivated in Ham's F12 (Invitrogen; #31765068) supplemented with 10 µg/ml Puromycin (Invitrogen; #A11139-03), 200 µg/ml Zeocin (Invitrogen; #45-0003) and 10% FCS (Gibco; #10500-064).
Membranes were prepared from CHO (Gα16) human CCR5 cells. Cells were cultured on […] plates (Nunc; #166508) 2-3 days before membrane preparation (usually 80-100 plates to obtain 80 mg protein).
Cells were scraped off the plates with a big scraper and washed with 2×5 ml ice cold Phosphate Buffer Saline (PBS; Invitrogen; #14040-174). Cell suspension was collected in a glass bottle (on ice). Cell suspension was harvested at 1400 rpm and 4° C. for 10 min and washed in PBS. Cell pellet was resuspended in 40 ml PBS with protease inhibitor mix ‘complete’ (Roche; #11873580001; 1 tablet/50 ml).
For gentle cell disruption the membrane preparation was performed by using a homogenizer (potter). Cells were homogenized for 5-10 min.
Membranes were centrifuged at 1000 rpm and 4° C. for 5 min. Supernatant (=membrane) was harvested in a new falcon tube and remaining cell pellet homogenized again for 5-10 min with PBS with protease inhibitor mix and centrifuged. Collected supernatant was centrifuged at 40000 rpm and 4° C. for 30 min to sediment the cell membranes.
The membranes were resuspended in 25 mM HEPES, 25 mM MgCl2, 1 mM CaCl2, 10% Glycerine for storage in aliquots at −80° C. Membranes were diluted to a concentration of 5 mg/ml (Bradford Assay).
[^125I]RANTES, Stock: 1825 Ci/mmol, 25 μCi (Bio Trend #A3-AI-676) was solved in 1000 μl assay buffer (100 mM NaCl; 10 mM MgCl2; 50 mM Tris-HCl; 1 mM EDTA; 0.1% BSA, pH 7.6), stored at −20° C.
CHO (Gα16) human CCR5 membrane were solved on ice and adjusted with assay buffer to a concentration of 2.5 μg/15 μl.
Amersham Biosciences PVT-WGA Beads (GE Healthcare; #RPNQ0001) were adjusted with assay buffer to a concentration of 8 mg/ml. For preparation of the membrane-bead-suspension, membranes and beads were incubated for 30 min at RT under rotation with a ratio of 1:2.
Test compounds dissolved in 100% DMSO to a concentration of 10 mM and are further diluted with 100% DMSO to 1 mM. All additional compound dilutions were obtained with assay buffer, final 1% DMSO. 7 μl compound dilution, 45 μl membrane-bead-suspension and 10 μl [^125I]RANTES (ca. 20000 cpm/10 μl) were incubated at RT. Bound radioactivity was determined by scintillation counter after 6 h. Determination of affinity of test compounds (dissociation constant Ki) is calculated by iterative fitting of experimental data using the “easy sys” program, which is based on law of mass action (Schittkowski K. (1994), Numerische Mathematik, Vol. 68, 129-142).

T2 sequence (P51681 whole entry): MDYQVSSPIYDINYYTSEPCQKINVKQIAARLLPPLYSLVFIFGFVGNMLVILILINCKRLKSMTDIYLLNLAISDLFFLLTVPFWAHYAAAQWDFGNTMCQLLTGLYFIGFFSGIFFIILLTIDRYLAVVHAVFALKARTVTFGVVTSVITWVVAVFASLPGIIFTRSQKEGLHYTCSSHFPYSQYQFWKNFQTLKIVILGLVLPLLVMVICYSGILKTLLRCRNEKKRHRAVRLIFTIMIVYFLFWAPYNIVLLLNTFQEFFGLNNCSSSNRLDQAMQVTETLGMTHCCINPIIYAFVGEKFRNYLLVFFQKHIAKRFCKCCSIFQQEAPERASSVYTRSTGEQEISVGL

Row | Ki [1] | Ki [2] | SMILES
1 | 0.5 nM | 460 nM | Cc1c(NC[C@H]2CCC[C@@H](c3ccc(C(F)(F)F)cc3)O2)ncnc1C(=O)N1CCC(N2CCO[C@H]3COCC[C@H]32)CC1 [Example 2]
2 | 0.2 nM | 21 nM | Cc1c(NC[C@H]2CCC[C@@H](c3ccc(C(F)(F)F)cc3)O2)ncnc1C(=O)N1CCC(N2C[C@H]3C[C@@H](N(C)S(C)(=O)=O)C[C@H]3C2)CC1 [Example 9]
3 | 40 nM | 880 nM | Cc1ccc([C@@H]2CCC[C@H](CNc3ncnc(C(=O)N4CCC(N5CC6COCC6C5)CC4)c3C)O2)cc1 (stereo partly shown) [Example 16]
4 | 3 nM | 330 nM | Cc1ccc([C@@H]2CCC[C@H](CNc3ncnc(C(=O)N4CCC(N5CC6CN(S(C)(=O)=O)CC6C5)CC4)c3C)O2)cc1 (stereo partly shown) [Example 14]
5 | 3 nM | 200 nM | Cc1c(NC[C@H]2CCC[C@@H](c3ccc(C(F)(F)F)cc3)O2)ncnc1C(=O)N1CCC(N2CCOC3COCCC32)CC1 (stereo partly shown) [Example 21]
6 | 0.3 nM | 38 nM | Cc1ccc([C@@H]2CCC[C@H](CNc3ncnc(C(=O)N4CCC(N5C[C@H]6C[C@@H](N(C)S(C)(=O)=O)C[C@H]6C5)CC4)c3C)O2)cc1 [Example 6]
7 | 16 nM | 320 nM | Cc1c(NC[C@H]2CCC[C@@H](c3ccc(C(F)(F)F)cc3)O2)ncnc1C(=O)N1CCC(N2CC3COCC3C2)CC1 (stereo partly shown) [Example 17]
8 | 1 nM | 48 nM | Cc1c(NC[C@H]2CCC[C@@H](c3ccc(OC(F)(F)F)cc3)O2)ncnc1C(=O)N1CCC(N2CCO[C@H]3COCC[C@H]32)CC1 (single isomer, unassigned) [Example 33]
9 | 11 nM | 1820 nM | Cc1c(NCc2ccc(C(C)(C)C)cc2)ncnc1C(=O)N1CCC(N2CC3CN(S(C)(=O)=O)CC3C2)CC1 (stereo not shown) [Example 42]

Continued, compound first:

Row | SMILES | Ki [1] | Ki [2]
10 | Cc1c(NC[C@H]2CCC[C@@H](c3ccccc3)C2)ncnc1C(=O)N1CCC(N2CC3COCC3C2)CC1 (stereo partly shown) [Example 44] | 7 nM | 65 nM
11 | Cc1c(Nc2cccc(C(F)(F)F)c2)ncnc1C(=O)N1CCC(N2CCO[C@H]3COCC[C@H]32)CC1 [Example 5] | 9 nM | 1460 nM
12 | Cc1c(Nc2ccc(Cl)c(Cl)c2)ncnc1C(=O)N1CCC(N2CC3CN(S(C)(=O)=O)CC3C2)CC1 (stereo not shown) [Example 15] | 3 nM | 400 nM
13 | Cc1nc(Nc2cccc(C(F)(F)F)c2)c(C)c(C(=O)N2CCC(N3CCO[C@H]4COCC[C@H]43)CC2)n1 [Example 30] | 9 nM | 1000 nM
14 | Cc1c(Nc2cccc(C(F)(F)F)c2)nc(C2CC2)nc1C(=O)N1CCC(N2CCO[C@H]3COCC[C@H]32)CC1 (single isomer, unassigned) [Example 39a] | 1 nM | 460 nM
15 | COc1nc(Nc2ccc(Cl)c(Cl)c2)c(C)c(C(=O)N2CCC(N3CCO[C@@H]4COCC[C@@H]43)CC2)n1 (single isomer, unassigned) [Example 37b] | 6 nM | 1000 nM
16 | Cc1nc(Nc2ccc(Cl)c(Cl)c2)c(C)c(C(=O)N2CCC(N3CCO[C@H]4COCC[C@H]43)CC2)n1 [Example 25] | 3 nM | 470 nM
17 | Cc1c(Nc2ccc(Cl)c(Cl)c2)nc(C2CC2)nc1C(=O)N1CCC(N2CCO[C@H]3COCC[C@H]32)CC1 (single isomer, unassigned) [Example 35a] | 1 nM | 160 nM
18 | Cc1c(C(=O)N2CCC(N3CC4CN(S(C)(=O)=O)CC4C3)CC2)ncnc1N1CCc2ccc(C(F)(F)F)cc2C1 (stereo not shown) [Example 13] | 7 nM | 2270 nM
19 | Cc1c(C(=O)N2CCC(N3CCO[C@H]4COCC[C@H]43)CC2)ncnc1N1CCc2ccc(C(F)(F)F)cc2C1 [Example 3] | 4 nM | 2090 nM
20 | COc1nc(Nc2cccc(C(F)(F)F)c2)c(C)c(C(=O)N2CCC(N3CCO[C@H]4COCC[C@H]43)CC2)n1 [Example 27] | 3 nM | 1000 nM
21 | Cc1c(Nc2ccc(Cl)c(Cl)c2)ncnc1C(=O)N1CCC(N2CCO[C@H]3COCC[C@H]32)CC1 [Example 4] | 4 nM | 540 nM
22 | Cc1c(Nc2ccc(Cl)c(Cl)c2)ncnc1C(=O)N1CCC(N2CCO[C@H]3COCC[C@H]32)CC1 [Example 24] | 2 nM | 670 nM
23 | Cc1c(C(=O)N2CCC(N3CC4COCC4C3)CC2)ncnc1N1CCc2ccc(C(F)(F)F)cc2C1 (stereo not shown) [Example 32] | 80 nM | 5310 nM
24 | Cc1nc(Nc2cccc(C(F)(F)F)c2)c(C)c(C(=O)N2CCC(N3CCO[C@H]4COCC[C@H]43)CC2)n1 (single isomer, unassigned) [Example 40b] | 9 nM | 640 nM
25 | Cc1c(Nc2ccc(Cl)c(Cl)c2)ncnc1C(=O)N1CCC(N2CC3COCC3C2)CC1 (stereo not shown) [Example 18] | 24 nM | 930 nM
26 | Cc1c(Nc2ccc(Cl)c(Cl)c2)nc(C2CC2)nc1C(=O)N1CCC(N2CCO[C@H]3COCC[C@H]32)CC1 [Example 26] | 0.8 nM | 430 nM
27 | Cc1ccc2c(c1)CN(c1nc(C)nc(C(=O)N3CCC(N4CCO[C@H]5COCC[C@H]54)CC3)c1C)CC2 [Example 31] | 67 nM | 7010 nM
28 | Cc1c(Nc2cccc(C(F)(F)F)c2)nc(C2CC2)nc1C(=O)N1CCC(N2CCO[C@@H]3COCC[C@@H]32)CC1 (single isomer, unassigned) [Example 39b] | 31 nM | 

From US20130150354A1, “NEW SELECTIVE CCR2 ANTAGONISTS” (BOEHRINGER INGELHEIM INTERNATIONAL GMBH, priority 2011, published 2013)
